How the values were obtained:
[1] = test system: Lactobacillus plantarum ATCC 8014 in corn mash; experiment: Level of L. plantarum in inoculated corn mash by plating on MRS agar (Example 2); assay type: cell-based; conditions: 3 ppm
Protocol: Samples of corn mash were collected from a commercial fuel ethanol plant. The corn mash was collected immediately after liquefaction, prior to entry into fermentation. Corn mash samples were frozen upon arrival and defrosted for use in experiments. Lactobacillus plantarum ATCC 8014 was cultured overnight in MRS broth (Difco, Sparks, Md.). Samples of corn mash were inoculated with L. plantarum at approximately 10^4 CFU/ml. This level of bacterial contamination is common in fuel ethanol plants. L. plantarum bacteriophage (B-8014) were prepared and titered using the overlay method on MRS agar (as described in Example 1). One sample of corn mash received no treatment. A second sample was treated by the addition of 3 parts per million (ppm) of Penicillin G. Three additional samples were treated with phage at a bacteria to phage ratio of 1:1, 1:10, and 1:100. All mash samples were incubated at 33° C., the temperature at which commercial fermentation takes place. The level of bacteria remaining in the test samples was determined by decimal dilutions in phosphate-buffered saline followed by plating of these dilutions onto plates of MRS agar. Plates were incubated overnight at 33° C. and colonies were enumerated.

L. plantarum ATCC 8014 = experiment: Growth of L. plantarum in MRS broth by optical density (Example 1); assay type: cell-based, Lactobacillus plantarum; conditions: 1 ppm, after 40 hours of incubation
Source text: Lactobacillus plantarum is a bacterium commonly isolated from contaminated fuel ethanol fermentation. In this example, a spectrophotometer was used to quantify the growth of L. plantarum in laboratory media. The use of a spectrophotometer allowed rapid determination of bacterial levels by optical density. The optical density indicates the amount of light (at a wavelength of 450 nm) absorbed by a sample. High levels of bacterial growth in a sample well result in higher optical density.
L. plantarum ATCC 8014 was cultured overnight in MRS broth (available from Difco, Sparks, Md.) at 30° C. Stocks of L. plantarum ATCC 8014 bacteriophage (bacteriophage cocktail is referred to in the Examples as “B-8014”) were prepared and titered using the overlay method (Adams, M. H. The Bacteriophages, Interscience Publishers, New York, 1959) with MRS agar. Since bacteriophage (phage) are viruses, they are unable to replicate outside of their bacterial host. Therefore, to enumerate phage, cultures of host bacteria were prepared and mixed with dilutions of phage. These mixtures were placed onto a petri dish containing agar and incubated overnight. The presence of clear zones on “lawns” of bacteria indicated phage infection. These clear zones are known as “plaques” and therefore, phage levels are commonly referred to as plaque forming units per milliliter (PFU/ml). […]

CC1(C)S[C@@H]2[C@H](NC(=O)Cc3ccccc3)C(=O)N2[C@H]1C(=O)O [Penicillin G]
effect on growth of L. plantarum [1]: did not affect or control growth
Log CFU/ml at 0 hours ([1]; 33° C.): 4.86 Log CFU/ml
Log CFU/ml at 24 hours ([1]; 33° C.): 9.09 Log CFU/ml
Log CFU/ml at 40 hours ([1]; 33° C.): 9.19 Log CFU/ml
optical density at 450 nm compared with control wells (L. plantarum ATCC 8014): higher
reduction of growth of L. plantarum (L. plantarum ATCC 8014): not effective
